Measurements as given in US10899763B2, “Crystalline forms of salts of fused penta-cyclic dihydrodiazepinocarbazolones, and uses thereof” (BEIGENE, LTD., priority 2017, dated 2021).
Read-outs that look alike come from different tables or passages of the source.

Tests used:
[1] = Kinetic solubility test in bio-relevant media and H2O; type: physicochemical; conditions: for solubility: thermodynamic from solid; for solubility / dissolution profile in bio-relevant media (FaSSIF and FeSSIF): RT; for dissolution profile in bio-relevant media (FaSSIF and FeSSIF): sampled at 1 hr, 4 hrs and 24 hrs
Experimental: About 20 mg of each sample (Forms A, B or C2) was equilibrated in 3.0 mL of three bio-relevant media, i.e., fasted state small intestinal fluid (FaSSIF), Fed State Simulating Intestinal Fluid (FeSSIF) and Simulated Gastric Fluid (SGF), or H2O into each 4-mL plastic vial. The suspensions were mixed via triturating (25 rpm) at RT, with each suspension sampled at the end of 1 hr, 4 hrs and 24 hrs, respectively.

[2] = Phase I clinical safety study; type: in vivo; conditions: capsules, 2.5-120 mg bid, 25 subjects
[3] = Solid-state stability test; type: physicochemical; conditions: HPLC
Experimental: Each sample (Forms A, B or C2) was exposed to both conditions of 25° C./60% RH and 40° C./75% RH. After one-week storage, all the samples were characterized by XRPD to test any solid form change and by HPLC to check the purity change.

[4] = Hygroscopicity test (DVS isotherm, XRPD); type: physicochemical; conditions: for Water uptake % at 80% RH, Adsorption / Water uptake % at 80% RH, Desorption: DVS at 25° C.; for Hygroscopicity: concluded from the water uptake from adsorption cycle
Experimental: To investigate the solid form stability as a function of humidity, DVS isotherm plot (at 25° C.) and XRPD pattern were collected, see Table 11. The uptake percentage differences between desorption and adsorption are speculated to be related to the replacement of possible residual solvent with moisture.

[5] = Solid form change on heating (XRPD, VT-XRPD); type: physicochemical
Experimental: Associated with the results of TGA/DSC and solution NMR, Form B was confirmed to be an anhydrate.
To confirm the form change during heating of Form C2, VT-XRPD was conducted under protection of nitrogen.

[6] = tested on: MDA-MB-231 cells; assay: Synthetic lethality, CellTiter-Glo cell viability, MDA-MB-231; type: cell-based; conditions: MDA-MB-231, 7-day exposure, table; read-out: EC50 for growth inhibition
Experimental: (§1) MDA-MB-231 cells that is not BRCA gene mutant or other homologous recombination deficient were maintained in DMEM supplemented with fetal bovine serum (10% FBS), 100 units/ml penicillin and 0.1 mg/ml streptomycin. BRCA1-deficient cell line MDA-MB-436 was maintained in RPMI-1640 supplemented with 10% FBS, 100 units/ml penicillin and 0.1 mg/ml streptomycin. Both two cell lines were kept at 95% humidity and 5% CO2 in a 37° C. incubator.
(§2) The number of tumor cells seeded per well of a 96-well plate was optimized for each cell line to ensure logarithmic growth over the 7 days treatment period. Cells were left to attach for 16 hours and then treated with specific concentrations of test compounds. Following a 7-day exposure to the compound, the growth-inhibitory activity of compounds was determined using CellTiter-Glo luminescent cell viability assay (Promega). Luminescent signal was measured using PHERAstar FS reader (BMG Labtech). Cell viability was expressed as relative to mock treatment control. EC50 values for growth inhibition were calculated by fitting dose-dependent data to the four-parameter logistic model using XLfit software.

[7] = tested on: MDA-MB-436 (BRCA1 Deficient); assay: Synthetic lethality, CellTiter-Glo cell viability, MDA-MB-436; type: cell-based, human; conditions: 7-day exposure, table, read-out: EC50 for growth inhibition
Experimental: as §1, §2

[8] = tested on: intracellular PARP activity in HeLa cells; assay: Intracellular target inhibition: cellular PAR formation in hydrogen peroxide treated HeLa cells; type: cell-based; conditions: read-out: IC50 (nM) in PARylation assay
Experimental: The assay was performed as follows:
Cells were plated into a 96-well plate with clear bottom and black wall at a density of 5000 cells per well (100 μL). […] In the following day, H2O2 solution in PBS (final concentration 200 μM) was added and the plate was kept at 37° C. for 5 minutes. Then the medium was gently removed by plate inversion, and the cells were fixed by ice-cold MeOH at −20° C. for 20 minutes. […] After removal of solution and repeated wash with PBS, the PAR polymer level was estimated by ArrayScan VTI (ThermoFisher). Percent inhibition was determined on the basis of the residual enzyme activity in the presence of increasing PARP inhibitor concentration. IC50 values were calculated by fitting dose-dependent data to the four-parameter logistic model using XLfit software.

[9] = FaSSIF, read-out: solubility in FaSSIF
[10] = FeSSIF, read-out: solubility in FeSSIF

Q: What does the source list for `C[C@]12CCCN1CC1=NNC(=O)c3cc(F)cc4[nH]c2c1c34` [Crystalline Sesqui-Hydrate of Compound 1]?
A: solubility [1, 9]: < 100 µg/mL; solubility [1, 10]: 1000 µg/mL; clinical safety and tolerability [2]: safe and well tolerated

Q: Which results are given for `C[C@]12CCCN1CC1=NNC(=O)c3cc(F)cc4[nH]c2c1c34` [Form A]?
A: Purity of initial(%) ([3]; 25° C./60% RH (7 days)): 100.1%; Purity of initial(%) ([3]; 40° C./75% RH (7 days)): 100.1%; dissolution profile in bio-relevant media (FaSSIF and FeSSIF) [1]: good solubility was observed in FaSSIF and FeSSIF at the first time point, but the values went down after equilibrated for a longer time; dissolution profile in bio-relevant media (FaSSIF and FeSSIF) ([1]; listed as phosphate salt of Compound 1): higher solubility at the first time point, but the values went down after equilibrated for a longer time; Water uptake % at 80% RH, Adsorption [4]: 1.9%; Water uptake % at 80% RH, Desorption [4]: 2.1%; Hygroscopicity [4]: Hygroscopic; form change after heating and cooling at ambient conditions (XRPD) ([5]; heated to 170° C.): No form change

Q: For `C[C@]12CCCN1CC1=NNC(=O)c3cc(F)cc4[nH]c2c1c34.O=C(O)/C=C\C(=O)O` [Form B], which “Purity of initial(%)” value ([3]; 25° C./60% RH (7 days)) is on record?
A: 100.2%

Q: What about the “Purity of initial(%)” value ([3]; 40° C./75% RH (7 days)) of the same molecule?
A: 100.1%

Q: What about the “dissolution profile in bio-relevant media (FaSSIF and FeSSIF)” value (from here on “dissolution profile”) [1] of the same molecule?
A: Steady dissolution rate

Q: What about the “dissolution profile” value ([1]; listed as maleate salt of Compound 1) of the same molecule?
A: steady dissolution profiles

Q: What about the solubility [1, 9] of the same molecule?
A: ~200 µg/mL

Q: And the solubility [1, 10]?
A: ~500 µg/mL

Q: And the “physical stability of the solid suspended in the media” value ([1]; up to 24 hours)?
A: physically stable

Q: What about the “Water uptake % at 80% RH, Adsorption” value [4] of the same molecule?
A: 0.7%

Q: And the “Water uptake % at 80% RH, Desorption” value [4]?
A: 2.4%

Q: What about the Hygroscopicity [4] of the same molecule?
A: Slightly hygroscopic

Q: What about the “form change after heating and cooling at ambient conditions (XRPD)” value ([5]; heated to 150° C.) of the same molecule?
A: No form change

Q: With `C[C@]12CCCN1CC1=NNC(=O)c3cc(F)cc4[nH]c2c1c34.O=C(O)/C=C/C(=O)O` [Form C2] as the molecule, how does the “Purity of initial(%)” value ([3]; 25° C./60% RH (7 days)) read?
A: 100.2%

Q: What about the “Purity of initial(%)” value ([3]; 40° C./75% RH (7 days)) of the same molecule?
A: 100.0%

Q: And the “dissolution profile” value [1]?
A: good solubility was observed in FaSSIF and FeSSIF at the first time point, but the values went down after equilibrated for a longer time

Q: And the “dissolution profile” value ([1]; listed as fumarate salt of Compound 1)?
A: higher solubility at the first time point, but the values went down after equilibrated for a longer time

Q: And the “Water uptake % at 80% RH, Adsorption” value [4]?
A: 0.2%

Q: What about the “Water uptake % at 80% RH, Desorption” value [4] of the same molecule?
A: 0.3%

Q: And the Hygroscopicity [4]?
A: Slightly hygroscopic

Q: What about the “physical stability at ambient conditions” value ([5]; ambient conditions) of the same molecule?
A: good physical stability

Q: What about the “form change during heating (VT-XRPD)” value ([5]; heating to 140° C. and cooling back to 30° C. with N2 flow) of the same molecule?
A: a new form named as Form C3 was observed

Q: With `C[C@]12CCCN1CC1=NNC(=O)c3cc(F)cc4[nH]c2c1c34.O=C(O)/C=C/C(=O)O` [Form C3] as the molecule, how does the “time to convert back to Form C2 after exposure to ambient conditions” value ([5]; ~25° C./70% RH) read?
A: ≤ 1 h

Q: What does the source list for `O=C(c1cc(Cc2n[nH]c(=O)c3ccccc23)ccc1F)N1CCN(C(=O)C2CC2)CC1` [Olaparib]?
A: EC50 [6]: ~5000 nM; EC50 [7]: 21 ± 7 nM

Q: What does the source list for `C[C@]1(c2nc3c(C(N)=O)cccc3[nH]2)CCCN1` [Veliparib]?
A: IC50 [8]: 2.66 nM; EC50 [6]: > 10000 nM; EC50 [7]: 820 ± 300 nM
